Assay results reported in patent publication US20260355189A1, “SMALL MOLECULE INHIBITORS OF NEUTROPHIL EXOCYTOSIS AND INFLAMMATION” (THE SCRIPPS RESEARCH INSTITUTE, priority 2022, published 2026).

Key:
mouse neutrophils = experiment: Isoluminol-dependent chemiluminescence assay of MPO secretion in purified mouse neutrophils; type: cell-based
From the text: FIGS. 3A-C illustrate the effect of Inhibitors C1, C2, C4, C5, and C6 and comparator Nexinhib 20 (shown as “C20”) on MPO secretion of mouse neutrophils. FIG. 3A is a schematic representation of a cell-based secondary screening assay used to analyze the potency the potency of Rab27a-JFC1 inhibitors for their ability to decrease exocytosis of intact human neutrophil. This cell-based assay measures the secretion of myeloperoxidase (MPO) by human neutrophils using cell-impermeant isoluminol-dependent chemiluminescence in the absence of exogenous peroxidases.
(§1) Human neutrophils were isolated from normal donor's blood by Ficoll density centrifugation, as described previously (23). Murine bone marrow-derived neutrophils were isolated using a Percoll gradient fractionation system as described (24). A three-layer Percoll gradient was used (52%, 64%, and 72%), and neutrophils were isolated from the 64-72% interface, washed, and used in the assays.
Extracellular MPO-dependent reactive oxygen species (ROS) production was measured using the chemiluminescence reactions mediated by isoluminol (25). To this end, 3×10^5 neutrophils were resuspended in serum-free RPMI 1640 medium in the presence of cell-impermeant isoluminol, and reactions were carried out in the absence of exogenous peroxidase. Neutrophils were incubated in the presence of compounds or DMSO (0.5%) pin-tooled into 384-well plates in a […]. Control experiments were run in parallel in the presence of [COMPOUND LEFT OUT] (0.5 mM) to inhibit endogenous myeloperoxidase. After addition of stimuli (phorbol 12-myristate 13-acetate, “PMA”) or vehicle using liquid handling devices (BioRaptor FRD, Beckman Coulter), MPO-dependent chemiluminescence was continuously monitored for 30 min at 37 °C using a 2104 EnVision multilabel plate reader. For secretion assays, 0.5×10^6 neutrophils were incubated in RPMI 1640 medium in polystyrene 96-well plates in the presence of Inhibitors or dimethyl sulfoxide (DMSO) control for 1 hour and stimulated for the indicated times at 37 °C with PMA (0.1 μg/ml), GM-CSF (10 ng/ml), and fMLP (1 μM) or DMSO control. The cells were spun down, and supernatants were transferred to clean plates using plate filters to avoid contamination from cellular secretory proteins. MPO was measured by ELISA (R&D Systems).
Results: FIG. 3B is a graph showing the effect of Inhibitors C1, C2, C4, C5, and C6 on secreted MPO-dependent reaction using the isoluminol-dependent chemiluminescence assay in highly purified mouse neutrophils. On the graph of FIG. 3B, the pre-fix “NS” means “no stimuli” where the cells were treated with 10 μM C1, C2, C4, C5, C6, and C20 alone without any exocytosis stimuli. The pre-fix “PMA” means the cells were stimulated with PMA to secrete MPO and were treated with 10 μM of the designated Inhibitor. […] Mean % inhibition: C1, 76.74; C2, 59.85; C4, 70.9; C6, 62.4; C20, 99.22.

[1] = test system: human neutrophils (azurophilic granule marker CD63); experiment: Flow cytometry of azurophilic granule mobilization (CD63) in human neutrophils; type: cell-based; conditions: 1 hour, GM-CSF + fMLP; for Inhibition of CD63 up-regulation: 10 μM, relative to DMSO, FIG. 4; for inhibition at 10 µM: Homo sapiens, Neutrophil, N=15 donors, FIG. 4, read-out: Mean % inhibition of CD63 up-regulation
From the text: as §1
(§2) Method: The up-regulation of granule membrane-associated neutrophil markers at the plasma membrane was analyzed by flow cytometry. In these studies, flow cytometry analysis was performed by resuspension of 1×10^6 human neutrophils in phenol red-free RPMI 1640 medium, treated with a 10 μM solution of Inhibitors C1, C2, C4, C5, and C6 and Nexinhib 20 (C20) or DMSO control for 1 hour, and stimulated with physiological agonists GM-CSF (10 ng/ml) for 30 min followed by the addition of fMLP (1 μM) to induce degranulation or left untreated at 37 °C (non-stimulated, NS). The reactions were stopped by transferring the samples to ice and immediately spinning down the cells to initiate blocking and staining. To analyze the plasma membrane expression of plasma membrane markers, the cells were blocked in ice-cold PBS containing 1% BSA and stained with phycoerythrin (PE)-, FITC-, or Alexa647-conjugated anti-human CD63, CD66b, MMP9, and CD11b antibodies that detect extracellular epitopes of these markers. The cells were then washed and fixed in 1% paraformaldehyde in PBS. Samples were analyzed using a NovoCyte flow cytometer, and the data were processed using FlowJo software.

[2] = test system: human neutrophils (specific granule marker CD66b); experiment: Flow cytometry of specific granule exocytosis (CD66b) in human neutrophils; type: cell-based; conditions: 1 hour, GM-CSF + fMLP; for Inhibition of CD66b up-regulation: relative to DMSO; for inhibition at 10 µM: Homo sapiens, Neutrophil, FIG. 5, read-out: % inhibition of CD66b up-regulation
From the text: as §1, §2

[3] = test system: human neutrophils (Gelatinase granule cargo MMP9); experiment: Flow cytometry of gelatinase granule exocytosis (MMP9) in human neutrophils; type: cell-based; conditions: 1 hour, GM-CSF + fMLP; for Inhibition in MMP9 experiment (words; printed as CD66b up-regulation): 10 μM, relative to DMSO, FIG. 6; for inhibition at 10 µM: Homo sapiens, Neutrophil, N=12 donors, FIG. 6, read-out: % Inhibition of MMP9 up-regulation
From the text: as §1, §2

[4] = test system: human neutrophils (secretory vesicle marker CD11b); experiment: Flow cytometry of secretory vesicle mobilization (CD11b) in human neutrophils; type: cell-based; conditions: 10 μM, 1 hour; GM-CSF + fMLP; relative to DMSO; N=15 donors; FIG. 7
From the text: as §1, §2

[5] = test system: neutrophils that carry the NLRP3 A350V mutation; experiment: Secretion by bone-marrow-derived neutrophils from Nlrp3 A350V (CAPS) mice; type: cell-based, mouse; conditions: 10 μM, 1 hour, LPS and fMLF; for Mobilization of azurophilic granules (MPO) / Mobilization of gelatinase granules (MMP9) / Mobilization of CD63: FIG. 8; for Neutrophil secretion (hyperactivation of secretion): Nlrp3 A350V and wild type, FIG. 8A-C; for Mobilization of CD63: murine neutrophils
From the text: FIG. 8A-C. […] A, gelatinase (MMP9) granules; B, azurophilic granules (MPO, myeloperoxidase); C, CD63 (an endolysosomal marker). […] Subsequently, neutrophils were either stimulated with lipopolisacharide (LPS) and the chemotatctic peptide fMLF or left untreated. C20 (Nexinhib20 is used as control). Mean±SEM, n=3. In this and subsequent figures, p<0.05; **, p<0.01; ***, p<0.001; ****, p<0.0001, ANOVA.
These compounds are now tested using neutrophils from a mouse model of Cryopyrin-Associated Periodic Syndrome (CAPS), a systemic inflammatory disease in humans, caused by gain-of-function mutations of the NOD-like receptor family member, cryopirin, also known as NLRP3 (J Cin Immunol 39, 277-286, doi:10.1007/s10875-019-00638-z (2019)). Heterozygous NLRP3 mutations lead to hyper-responsive NLRP3 inflammasome function characterized by increased caspase-1 (Casp1) activation and […], and is observed in patients and in animal models with NLRP3-gain-of-function mutations. […] Subsequently, neutrophils were either stimulated with LPS and the chemotatctic peptide fMLF or left untreated.

wild-type neutrophils = experiment: Secretion by wild-type neutrophils; type: cell-based
[6] = 10 μM inhibitor, PMA stimulated, FIG. 3B
[7] = Mus musculus, Neutrophil, 10 μM inhibitor, PMA stimulated, FIG. 3B

| Compound | Inhibition of exocytosis vs DMSO control (mouse neutrophils; [6]) | inhibition at 10 µM (mouse neutrophils; [7]) [%] | IC50 (mouse neutrophils; Mus musculus, Neutrophil, dose-response analysis, FIG. 3C) [nM] | Inhibition of CD63 up-regulation [1] | inhibition at 10 µM [1] [%] | Inhibition of CD66b up-regulation ([2]; 10 μM, FIG. 5) | inhibition at 10 µM ([2]; N=12 donors) [%] | Inhibition in MMP9 experiment (words; printed as CD66b up-regulation) [3] | inhibition at 10 µM [3] [%] | Release of CD11b+ vesicles / CD11b upregulation [4] | Mobilization of azurophilic granules (MPO) [5] | Mobilization of gelatinase granules (MMP9) [5] | Neutrophil secretion (hyperactivation of secretion) ([5]; listed as C1) | Neutrophil secretion (hyperactivation of secretion) ([5]; listed as NEIa-C1) | Mobilization of CD63 [5] | Inhibitory effect on wild-type neutrophils (wild-type neutrophils) | Neutrophil secretion (hyperactivation of secretion) [5] | Mean % inhibition of MPO-dependent chemiluminescence (MPO secretion) (mouse neutrophils; [6]) [%] | % inhibition of CD66b up-regulation ([2]; 10 μM, N=12 donors, FIG. 5) [%] |
| --- | --- | --- | --- | --- | --- | --- | --- | --- | --- | --- | --- | --- | --- | --- | --- | --- | --- | --- | --- |
| CN(C)c1cccc(/C=C(/C(=O)C(C)(C)C)n2cncn2)c1 [150 (C1)] | significant inhibition of exocytosis | 76.7 | 860 | marked and significant inhibition of CD63 up-regulation | 93.1 | marked and significant inhibition of CD66b up-regulation | 57.6 | marked inhibition of CD66b up-regulation | 55.3 | unaffected | inhibit the mobilization | inhibit the mobilization of gelatinase granules (MMP9) | inhibit the hyperactivation of secretion | significantly inhibit secretion | significantly inhibited the mobilization of CD63 | selective inhibitory effect on wild-type neutrophils | – | – | – |
| CC(C)(C)C(=O)C(=Cc1cccc(O)c1)n1cncn1 [151 (C2)] | significant inhibition of exocytosis | 59.9 | – | marked and significant inhibition of CD63 up-regulation | 59.5 | marked and significant inhibition of CD66b up-regulation | 35.8 | marked inhibition of CD66b up-regulation | 26.5 | unaffected | – | – | – | – | – | selective inhibitory effect on wild-type neutrophils | – | – | – |
| O=C(Nc1ccccc1)/C(=C/c1cccc([N+](=O)[O-])c1)n1cncn1 [152 (C4)] | significant inhibition of exocytosis | 70.9 | – | – | – | marked and significant inhibition of CD66b up-regulation | 48.1 | – | 16.4 | unaffected | inhibit the mobilization | inhibit the mobilization of gelatinase granules (MMP9) | – | – | significantly inhibited the mobilization of CD63 | selective inhibitory effect on wild-type neutrophils | inhibit the hyperactivation of secretion | – | – |
| CNC(=O)/C(=C/c1cccc([N+](=O)[O-])c1)n1cncn1 [153 (C5)] | – | – | – | – | – | – | – | – | – | unaffected | – | – | – | – | – | – | – | – | – |
| CC(C)(C)C(=O)/C(=C/c1cccc([N+](=O)[O-])c1)n1cncn1 [Nexinhib20, reference compound] | – | – | – | marked and significant inhibition of CD63 up-regulation | – | marked and significant inhibition of CD66b up-regulation | – | marked inhibition of CD66b up-regulation | – | significantly inhibited CD11b upregulation at the plasma membrane (to levels lower than basal controls) | – | – | – | – | – | – | – | 99.22 | 100 |
